Counter-ions that a name gives are not always drawn.
Row | melting point | Compound
1 | 222 to 226 °C | COC1C(Cc2ccccc2)CC2CCC1N2Cc1nc2ccccc2[nH]1 (racemic) (as salt: hydrochloride)
2 | 208 to 209 °C | OC1C(Cc2ccccc2)CC2CCC1N2Cc1nc2ccccc2[nH]1 (racemic)
3 | 234 to 236 °C | OC1C(Cc2ccccc2)CC2CCC1N2Cc1nc2ccccc2[nH]1 (racemic) (as salt: hydrochloride)
4 | 172 to 173 °C | COC1C(Cc2ccccc2)CC2CCC1N2Cc1nc2ccccc2[nH]1 (racemic)
